Results as given in patent US20260144788A1, “COMPOUND FOR SHP2 PROTEIN DEGRADATION AND MEDICAL USES THEREOF” (UBIX THERAPEUTICS, INC., priority 2022, published 2026).

Target: T1, SHP2 protein (Homo sapiens, UniProt Q06124)
T1 sequence (Q06124 1-593): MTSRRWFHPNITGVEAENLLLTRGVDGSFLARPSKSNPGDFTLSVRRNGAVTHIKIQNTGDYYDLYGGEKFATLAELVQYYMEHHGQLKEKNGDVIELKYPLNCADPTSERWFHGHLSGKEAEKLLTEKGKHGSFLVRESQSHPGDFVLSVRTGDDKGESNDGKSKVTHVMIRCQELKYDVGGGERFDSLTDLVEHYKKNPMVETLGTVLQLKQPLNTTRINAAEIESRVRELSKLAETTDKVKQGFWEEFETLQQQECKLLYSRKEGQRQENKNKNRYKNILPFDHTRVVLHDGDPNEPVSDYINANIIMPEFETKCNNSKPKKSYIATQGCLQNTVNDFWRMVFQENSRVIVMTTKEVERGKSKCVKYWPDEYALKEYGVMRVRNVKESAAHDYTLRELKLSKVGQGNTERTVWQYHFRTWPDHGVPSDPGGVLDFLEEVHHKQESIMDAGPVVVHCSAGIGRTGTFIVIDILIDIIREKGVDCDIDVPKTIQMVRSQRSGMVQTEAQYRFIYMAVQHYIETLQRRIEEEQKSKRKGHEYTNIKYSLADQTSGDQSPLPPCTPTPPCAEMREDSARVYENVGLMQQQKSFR
Test: Measurement of SHP2 protein degradation in MV-4-11 cells (western blotting)
Assay type: cell-based
Set-up: endogenous in cells
Details: harvested after 24 hours
Procedure, shortened: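 MV-4-11 cells in IMDM/5% FBS were exposed to compound at final 0.01, 0.1, 1 μM or 0.001, 0.01, 0.1 μM for 24 h, DMSO as negative control. BCA-normalised lysates were immunoblotted for SHP2 with GAPDH as loading control, read on LI-COR Odyssey.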

Compound: Cc1ncsc1-c1ccc(CNC(=O)[C@@H]2C[C@@H](O)CN2C(=O)[C@@H](NC(=O)C2(F)CC2)C(C)(C)C)c(OCCN2CCN(C(=O)C3CCN(c4nccc(Sc5cnc(N6CCC(C)(CN)CC6)cn5)c4Cl)CC3)CC2)c1 [Example 54, (2S,4R)—N-(2-(2-(4-(1-(4-((5-(4-(aminomethyl)-4-methylpiperidin-1-yl)pyrazin-2-yl)thio)-3-chloropyridin-2-yl)piperidine-4-carbonyl)piperazin-1-yl)ethoxy)-4-(4-methylthiazol-5-yl)benzyl)-1-((S)-2-(1-fluorocyclopropane-1-carboxamido)-3,3-dimethylbutanoyl)-4-hydroxypyrrolidine-2-carboxamide]
- SHP2% degradation (0.01 μM): 69.4%
- SHP2% degradation (0.1 μM): 99.3%

Compound: Cc1ncsc1-c1ccc(CNC(=O)[C@@H]2C[C@@H](O)CN2C(=O)[C@@H](NC(=O)C2(F)CC2)C(C)(C)C)c(OCCC2CCN(C(=O)C3CN(c4nccc(Sc5cnc(N6CCC(C)(CN)CC6)cn5)c4Cl)C3)CC2)c1 [Example 55, (2S,4R)—N-(2-(2-(1-(1-(4-((5-(4-(aminomethyl)-4-methylpiperidin-1-yl)pyrazin-2-yl)thio)-3-chloropyridin-2-yl)azetidine-3-carbonyl)piperidin-4-yl)ethoxy)-4-(4-methylthiazol-5-yl)benzyl)-1-((S)-2-(1-fluorocyclopropane-1-carboxamido)-3,3-dimethylbutanoyl)-4-hydroxypyrrolidine-2-carboxamide]
- SHP2% degradation (0.01 μM): 27.5%
- SHP2% degradation (0.1 μM): 95.0%

Compound: Cc1ncsc1-c1ccc(CNC(=O)[C@@H]2C[C@@H](O)CN2C(=O)[C@@H](NC(=O)C2(F)CC2)C(C)(C)C)c(OCCC2CCN(C(=O)C3CCN(c4nccc(Sc5cnc(N6CCC(C)(CN)CC6)cn5)c4Cl)CC3)CC2)c1 [Example 56, (2S,4R)—N-(2-(2-(1-(1-(4-((5-(4-(aminomethyl)-4-methylpiperidin-1-yl)pyrazin-2-yl)thio)-3-chloropyridin-2-yl)piperidine-4-carbonyl)piperidin-4-yl)ethoxy)-4-(4-methylthiazol-5-yl)benzyl)-1-((S)-2-(1-fluorocyclopropane-1-carboxamido)-3,3-dimethylbutanoyl)-4-hydroxypyrrolidine-2-carboxamide]
- SHP2% degradation (0.01 μM): 55.8%
- SHP2% degradation (0.1 μM): 98.6%

Compound: Cc1ncsc1-c1ccc(CNC(=O)[C@@H]2C[C@@H](O)CN2C(=O)[C@@H](NC(=O)C2(F)CC2)C(C)(C)C)c(OC2CC3(CCN(C(=O)C4CCN(c5nccc(Sc6cnc(N7CCC(C)(CN)CC7)cn6)c5Cl)CC4)CC3)C2)c1 [Example 57, (2S,4R)—N-(2-((7-(1-(4-((5-(4-(aminomethyl)-4-methylpiperidin-1-yl)pyrazin-2-yl)thio)-3-chloropyridin-2-yl)piperidine-4-carbonyl)-7-azaspiro[3.5]nonan-2-yl)oxy)-4-(4-methylthiazol-5-yl)benzyl)-1-((S)-2-(1-fluorocyclopropane-1-carboxamido)-3,3-dimethylbutanoyl)-4-hydroxypyrrolidine-2-carboxamide]
- SHP2% degradation (0.01 μM): 65.7%
- SHP2% degradation (0.1 μM): 96.8%

Compound: Cc1ncsc1-c1ccc(CNC(=O)[C@@H]2C[C@@H](O)CN2C(=O)[C@@H](NC(=O)C2(F)CC2)C(C)(C)C)c(OCC2CCN(C(=O)C3CCN(c4nccc(Sc5cnc(N6CCC(C)(CN)CC6)cn5)c4Cl)CC3)CC2)c1 [Example 58, (2S,4R)—N-(2-((1-(1-(4-((5-(4-(aminomethyl)-4-methylpiperidin-1-yl)pyrazin-2-yl)thio)-3-chloropyridin-2-yl)piperidine-4-carbonyl)piperidin-4-yl)methoxy)-4-(4-methylthiazol-5-yl)benzyl)-1-((S)-2-(1-fluorocyclopropane-1-carboxamido)-3,3-dimethylbutanoyl)-4-hydroxypyrrolidine-2-carboxamide]
- SHP2% degradation (0.01 μM): 82.0%
- SHP2% degradation (0.1 μM): 97.7%

Compound: Cc1ncsc1-c1ccc(CNC(=O)[C@@H]2C[C@@H](O)CN2C(=O)[C@@H](NC(=O)C2(F)CC2)C(C)(C)C)c(OC2CCN(C(=O)[C@H]3C[C@@H](Nc4nccc(Sc5cnc(N6CCC(C)(CN)CC6)cn5)c4Cl)C3)CC2)c1 [Example 59, (2S,4R)—N-(2-((1-((1s,3R)-3-((4-((5-(4-(aminomethyl)-4-methylpiperidin-1-yl)pyrazin-2-yl)thio)-3-chloropyridin-2-yl)amino)cyclobutanecarbonyl)piperidin-4-yl)oxy)-4-(4-methylthiazol-5-yl)benzyl)-1-((S)-2-(1-fluorocyclopropane-1-carboxamido)-3,3-dimethylbutanoyl)-4-hydroxypyrrolidine-2-carboxamide]
- SHP2% degradation (0.01 μM): 81.7%
- SHP2% degradation (0.1 μM): 99.5%

Compound: Cc1ncsc1-c1ccc(CNC(=O)[C@@H]2C[C@@H](O)CN2C(=O)[C@@H](NC(=O)C2(F)CC2)C(C)(C)C)c(OC2CCN(C(=O)[C@H]3C[C@@H](Nc4nccc(Sc5cnc(N6CCC(C)(N)CC6)cn5)c4Cl)C3)CC2)c1 [Example 60, (2S,4R)—N-(2-((1-((1S,3R)-3-((4-((5-(4-amino-4-methylpiperidin-1-yl)pyrazin-2-yl)thio)-3-chloropyridin-2-yl)amino)cyclobutanecarbonyl)piperidin-4-yl)oxy)-4-(4-methylthiazol-5-yl)benzyl)-1-((S)-2-(1-fluorocyclopropane-1-carboxamido)-3,3-dimethylbutanoyl)-4-hydroxypyrrolidine-2-carboxamide]
- SHP2% degradation (0.01 μM): 81.5%
- SHP2% degradation (0.1 μM): 99.3%

Compound: Cc1ncsc1-c1ccc(CNC(=O)[C@@H]2C[C@@H](O)CN2C(=O)[C@@H](NC(=O)C2(F)CC2)C(C)(C)C)c(OC2CCN(C(=O)[C@H]3C[C@H](Nc4nccc(Sc5cnc(N6CCC(C)(CN)CC6)cn5)c4Cl)C3)CC2)c1 [Example 61, (2S,4R)—N-(2-((1-((1r,3S)-3-((4-((5-(4-(aminomethyl)-4-methylpiperidin-1-yl)pyrazin-2-yl)thio)-3-chloropyridin-2-yl)amino)cyclobutanecarbonyl)piperidin-4-yl)oxy)-4-(4-methylthiazol-5-yl)benzyl)-1-((S)-2-(1-fluorocyclopropane-1-carboxamido)-3,3-dimethylbutanoyl)-4-hydroxypyrrolidine-2-carboxamide]
- SHP2% degradation (0.01 μM): 80.3%
- SHP2% degradation (0.1 μM): 99.3%

Compound: Cc1ncsc1-c1ccc(CNC(=O)[C@@H]2C[C@@H](O)CN2C(=O)[C@@H](NC(=O)C2(F)CC2)C(C)(C)C)c(OC2CCN(C(=O)[C@H]3CC[C@H](Nc4nccc(Sc5cnc(N6CCC(C)(CN)CC6)cn5)c4Cl)CC3)CC2)c1 [Example 62, (2S,4R)—N-(2-((1-((1R,4S)-4-((4-((5-(4-(aminomethyl)-4-methylpiperidin-1-yl)pyrazin-2-yl)thio)-3-chloropyridin-2-yl)amino)cyclohexanecarbonyl)piperidin-4-yl)oxy)-4-(4-methylthiazol-5-yl)benzyl)-1-((S)-2-(1-fluorocyclopropane-1-carboxamido)-3,3-dimethylbutanoyl)-4-hydroxypyrrolidine-2-carboxamide]
- SHP2% degradation (0.01 μM): 75.6%
- SHP2% degradation (0.1 μM): 98.9%
